Results as given in the NIST ThermoML archive (doi:10.1016/j.jct.2016.10.009).

Test: xn = mol fraction of the nth substance listed
Settings: Liquid, Vibrating tube method

CC(C)OC(C)C [diisopropyl ether] + CCC(C)O
mass density [kg/m3]
Settings	x2 = 0	x2 = 0.2036	x2 = 0.3227	x2 = 0.4464	x2 = 0.4973	x2 = 0.6595	x2 = 0.8482
333.15 K, 45000 kPa	–	–	–	761.8	765.4	777.4	793.2
333.15 K, 50000 kPa	739.1	750.4	757.8	765.7	769.2	781.1	796.6
333.15 K, 55000 kPa	743.1	754.3	761.6	769.4	772.9	784.5	799.8
333.15 K, 60000 kPa	747.1	758	765.2	772.9	776.4	787.9	803
333.15 K, 65000 kPa	750.9	761.7	768.8	776.4	779.8	791.2	806
333.15 K, 70000 kPa	754.4	765.1	772.1	779.7	783.1	794.3	808.9
333.15 K, 80000 kPa	761.3	771.8	778.6	785.9	789.2	800.2	814.6
333.15 K, 90000 kPa	767.7	778	784.7	791.9	795.1	805.9	820
333.15 K, 100000 kPa	773.7	783.7	790.3	797.4	800.5	811.1	824.9
333.15 K, 110000 kPa	779.4	789.3	795.8	802.7	805.9	816.1	829.8
333.15 K, 120000 kPa	784.7	794.5	800.9	807.7	810.8	820.9	834.3
333.15 K, 130000 kPa	789.9	799.5	805.9	812.5	815.6	825.6	838.8
333.15 K, 140000 kPa	794.8	804.2	810.4	817	820	830	842.9
353.19 K, 100 kPa	–	672.3	682	692.5	–	712.8	732.9
353.19 K, 1000 kPa	659.5	674.1	683.6	694.1	698.7	714.2	734.2
353.19 K, 5000 kPa	667.6	681.5	690.7	700.7	705.1	720	739.3
353.19 K, 10000 kPa	676.5	689.7	698.5	708	712.3	726.7	745.2
353.19 K, 15000 kPa	684.4	697.1	705.5	714.7	718.9	732.8	750.7
353.19 K, 20000 kPa	691.5	703.8	711.9	720.9	724.9	738.3	755.8
353.19 K, 25000 kPa	698	709.9	717.9	726.6	730.4	743.5	760.6
353.19 K, 30000 kPa	704	715.7	723.4	731.9	735.7	748.5	765.1
353.19 K, 35000 kPa	709.7	721	728.6	736.8	740.6	753.1	769.3
353.19 K, 40000 kPa	714.8	725.9	733.3	741.5	745.1	757.3	773.4
353.19 K, 45000 kPa	719.7	730.8	738	745.9	749.5	761.5	777.3
353.19 K, 50000 kPa	724.6	735.3	742.4	750.3	753.8	765.6	781
353.19 K, 55000 kPa	728.9	739.4	746.5	754.3	757.7	769.4	784.5
353.19 K, 60000 kPa	733.2	743.6	750.5	758.1	761.6	773	788
353.19 K, 65000 kPa	737.2	747.6	754.3	761.9	765.2	776.6	791.3
353.19 K, 70000 kPa	741.1	751.3	758	765.5	768.8	780	794.6
353.19 K, 80000 kPa	748.4	758.3	765	772.2	775.4	786.3	800.5
353.19 K, 90000 kPa	755.4	765.1	771.5	778.6	781.8	792.4	806.4
353.19 K, 100000 kPa	761.6	771.2	777.6	784.5	787.6	798	811.8
353.19 K, 110000 kPa	767.8	777.1	783.4	790.2	793.3	803.5	816.9
353.19 K, 120000 kPa	773.4	782.6	788.8	795.5	798.5	808.6	821.8
353.19 K, 130000 kPa	778.8	787.8	793.9	800.6	803.5	813.4	826.5
353.19 K, 140000 kPa	784	792.9	798.9	805.4	808.4	818.2	831
373.24 K, 1000 kPa	635.6	649.8	659.4	670	674.8	690.8	711.2
373.24 K, 5000 kPa	645.5	659	668	678.1	682.5	697.8	717.4
373.24 K, 10000 kPa	656.1	668.7	677.2	686.9	691.1	705.6	724.3
373.24 K, 15000 kPa	665.3	677.4	685.5	694.7	698.8	712.7	730.7
373.24 K, 20000 kPa	673.5	685.1	693	701.7	705.7	719.1	736.5
373.24 K, 25000 kPa	680.8	692.1	699.7	708.2	712	725.1	741.9
373.24 K, 30000 kPa	687.6	698.6	706	714.3	718	730.6	747.1
373.24 K, 35000 kPa	693.8	704.4	711.7	719.8	723.4	735.7	751.9
373.24 K, 40000 kPa	699.6	710	717.1	725	728.5	740.7	756.3
373.24 K, 45000 kPa	705	715.3	722.2	730	733.5	745.3	760.7
373.24 K, 50000 kPa	710.1	720.1	726.9	734.6	738	749.6	764.7
373.24 K, 55000 kPa	714.9	724.9	731.5	739	742.4	753.8	768.7
373.24 K, 60000 kPa	719.5	729.2	735.8	743.2	746.5	757.8	772.4
373.24 K, 65000 kPa	723.9	733.4	740	747.3	750.6	761.6	776
373.24 K, 70000 kPa	728.1	737.4	743.9	751.1	754.3	765.2	779.5
373.24 K, 80000 kPa	735.9	745.2	751.5	758.4	761.6	772.3	786.1
373.24 K, 90000 kPa	743.2	752.3	758.4	765.2	768.4	778.8	792.3
373.24 K, 100000 kPa	750	758.8	764.9	771.5	774.6	784.8	798.2
373.24 K, 110000 kPa	756.3	765.1	771	777.6	780.6	790.6	803.6
373.24 K, 120000 kPa	762.3	770.9	776.8	783.2	786.1	796	808.8
373.24 K, 130000 kPa	768	776.5	782.3	788.7	791.5	801.3	813.9
373.24 K, 140000 kPa	773.3	781.8	787.4	793.7	796.6	806.1	818.6
393.28 K, 1000 kPa	609.5	623.6	633.2	644	648.8	665	686.4
393.28 K, 5000 kPa	622.1	635	643.9	654	658.4	673.7	693.9
393.28 K, 10000 kPa	635	647	655.3	664.6	668.8	683.2	702.2
393.28 K, 15000 kPa	645.8	657.1	665	673.9	677.9	691.5	709.7
393.28 K, 20000 kPa	655.2	666	673.6	682	685.8	698.9	716.3
393.28 K, 25000 kPa	663.5	674	681.2	689.5	693.1	705.7	722.6
393.28 K, 30000 kPa	671.1	681.1	688.2	696.2	699.8	712	728.4
393.28 K, 35000 kPa	677.9	687.8	694.7	702.5	705.9	717.8	733.8
393.28 K, 40000 kPa	684.3	694	700.7	708.3	711.6	723.2	738.8
393.28 K, 45000 kPa	690.2	699.6	706.2	713.7	717	728.3	743.6
393.28 K, 50000 kPa	695.8	705.1	711.5	718.8	722	733.1	748.1
393.28 K, 55000 kPa	701.1	710.3	716.6	723.7	726.9	737.8	752.5
393.28 K, 60000 kPa	705.9	714.9	721.1	728.2	731.3	742.1	756.5
393.28 K, 65000 kPa	710.6	719.4	725.7	732.5	735.6	746.3	760.4
393.28 K, 70000 kPa	715.2	723.9	729.9	736.8	739.9	750.3	764.3
393.28 K, 80000 kPa	723.5	732	738	744.7	747.6	757.7	771.4
393.28 K, 90000 kPa	731.3	739.7	745.5	752	754.9	764.8	778.1
393.28 K, 100000 kPa	738.4	746.7	752.4	758.7	761.6	771.3	784.3
393.28 K, 110000 kPa	745.3	753.3	758.9	765.2	768	777.5	790.3
393.28 K, 120000 kPa	751.4	759.4	764.9	771.1	773.8	783.2	795.8
393.28 K, 130000 kPa	757.4	765.3	770.8	776.8	779.6	788.8	801.1
393.28 K, 140000 kPa	763.1	770.8	776.3	782.3	784.9	794.1	806.2
